According to patent US20040024024A1, “Aromatic sulfone hydroxamates and their use as protease inhibitors” (priority 2001, published 2004):

Experiments:
[1] = biological target: T1, Human recombinant MMP-9 (Homo sapiens, UniProt P14780); test: In vitro MMP inhibition, Ki determination (fluorogenic substrate II); format: biochemical
T1 construct: made in house; host or cells: MMP-9-transfected HT1080 cells (spent media)
Method: Several hydroxamates and salts thereof were analyzed in in vitro assays to determine their ability to inhibit the MMP cleavage of peptide substrates. Inhibition (Ki) and IC50 constants were calculated from the assayed hydroxamate-MMP interactions.
Human recombinant MMP-1, MMP-2, MMP-9, MMP-13, and MMP-14 were used in this assay. All enzymes were prepared in Assignee's laboratories following usual laboratory procedures. Protocols for the preparation and use of these enzymes are available in the scientific literature. See, e.g., Enzyme Nomenclature (Academic Press, San Diego, Calif., 1992) (and the citations therein). See also, Frije et al., J. Biol. Chem., 26(24), 16766-73 (1994).
The MMP-9 proenzyme was purified by gelatin Sepharose chromatography from spent media of MMP-9-transfected HT1080 cells provided by Dr. Howard Welgus of Washington University (St. Louis, Mo.).
All MMPs were activated using 4-aminophenylmercuric acetate (“APMA”, Sigma Chemical, St. Louis, Mo.) or trypsin. MMP-9 also was activated using human recombinant MMP-3 (purified in Assignee's laboratory following standard cloning and purification techniques).
Two fluorogenic, methoxycoumarin-containing polypeptide substrates were used in the MMP inhibition assays:
MCA-ArgProLeuGlyLeuDpaAlaArgGluArgNH2 (II)
Here, “Dpa” is 3-(2,4-dinitrophenyl)-L-2,3-diaminopropionyl group, and “MCA” is 7-methoxycoumarin-4-yl acetyl. Substrate (I) was purchased from Baychem (Redwood City, Calif.), and substrate II was prepared Assignee's laboratory. Substrate I was used in the IC50 determination assays, while substrate II was used in the Ki determination assays. In the absence of MMP inhibitory activity, either substrate is cleaved at the Gly-Leu peptide bond. This cleavage separates the highly fluorogenic peptide from the 2,4-dinitrophenyl quencher, thus resulting in increase of fluorescent intensity.
The stock solutions of the assayed hydroxamates (or salts thereof) were prepared in 1% dimethyl sulfoxide (DMSO). These stock solutions were diluted in Buffer A (100 mM Tris-HCl, 100 mM NaCl, 10 mM CaCl2, 0.05% polyoxyethylene 23 lauryl ether, pH 7.5) to obtain solutions with different hydroxamate concentrations, i.e., assay solutions with different concentrations of the assayed MMP inhibitory compound. The experiment controls contained the same amount of Buffer A/DMSO as the assayed sample, but contained no hydroxamate (or salt thereof).
The assays from which the Ki determinations were made were performed as follows. The assayed hydroxamate samples were incubated in separate wells of untreated white polystyrene plates (Nunc Nalgene International, Rochester, N.Y.), and analyzed on a Tecan SpectraFlour Plus plate reader. The excitation wavelength was 330 nm, and the emission wavelength—420 nm. All samples (assayed hydroxamates and controls) were incubated in separate plate wells at room temperature for 1 hr in the presence of 4 μM of MMP substrate (II). In the absence of MMP inhibitory activity, substrate II was cleaved at the Gly-Leu bond resulting in an increase of relative fluorescence. Inhibition was observed as a reduced rate of this increase in relative fluorescence. The various hydroxamates were analyzed using a single low enzyme concentration with a single substrate concentration fixed at or below the Km. This protocol is a modification of method by Knight et al., FEBS Lett., 296(3), 263-266 (1992). Apparent inhibitory constants were determined by non-linear regression of reaction velocity as a function of inhibitor and enzyme concentration using Morrison's equation, as described by Kuzmic, Anal. Biochem. 286, 45-50 (2000). Modifications were made in the non-linear regression method to allow a common control reaction rate and effective enzyme concentration to be shared between all dose-response relationships on a given assay plate. […]

[2] = biological target: T2, Human recombinant MMP-13 (Homo sapiens, UniProt P45452); test: In vitro MMP inhibition, IC50 determination (fluorogenic substrate I); format: biochemical
T2 construct: made in house; host or cells: baculovirus / insect cells
In short: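 Fluorescence at 415 nm (excitation 328 nm) reports Gly-Leu cleavage of 4 μM quenched methoxycoumarin peptide substrate I. Human recombinant MMP-13, activated by trypsin or APMA, was incubated at room temperature with varied inhibitor concentrations in pH 7.5 Tris/NaCl/CaCl2 buffer; IC50 derived from reduced fluorescence.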

T1 sequence (P14780 107-707 limits assumed): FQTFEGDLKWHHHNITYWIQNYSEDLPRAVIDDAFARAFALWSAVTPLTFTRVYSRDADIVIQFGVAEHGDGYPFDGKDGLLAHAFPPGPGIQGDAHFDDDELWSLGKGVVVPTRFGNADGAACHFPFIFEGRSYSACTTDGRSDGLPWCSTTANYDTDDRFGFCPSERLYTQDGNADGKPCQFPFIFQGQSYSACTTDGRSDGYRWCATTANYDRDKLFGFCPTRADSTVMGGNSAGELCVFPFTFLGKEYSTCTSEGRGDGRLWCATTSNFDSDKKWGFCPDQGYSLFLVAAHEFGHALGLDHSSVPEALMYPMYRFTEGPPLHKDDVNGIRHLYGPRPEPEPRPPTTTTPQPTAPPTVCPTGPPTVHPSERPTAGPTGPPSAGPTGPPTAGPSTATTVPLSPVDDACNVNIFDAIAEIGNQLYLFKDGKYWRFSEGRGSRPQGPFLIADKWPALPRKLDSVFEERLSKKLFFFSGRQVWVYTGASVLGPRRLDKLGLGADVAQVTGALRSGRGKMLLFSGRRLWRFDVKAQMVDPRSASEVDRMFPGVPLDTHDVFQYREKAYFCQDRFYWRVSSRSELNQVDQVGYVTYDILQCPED

Compound	Ki ([1]; value in parenthesis) [µM]	IC50 ([2]; value outside parenthesis) [µM]	Ki ([1]; value in parentheses) [µM]	IC50 ([2]; value outside parentheses) [µM]
COCCN1CCC(C(=O)NO)(S(=O)(=O)c2ccc(OCCCc3nnc(-c4ccccc4C(F)(F)F)o3)cc2)CC1 [Example 178]	0.306	0.0078		
O=C(CCCOc1ccc(S(=O)(=O)C2(C(=O)NO)CCOCC2)cc1)Nc1cccc(OC(F)(F)F)c1 [Example 181]	0.0405	0.0003		
CC(C)c1cccc(NC(=O)CCCOc2ccc(S(=O)(=O)C3(C(=O)NO)CCOCC3)cc2)c1 [Example 182]	0.0854	0.0005		
COCCN1CCC(C(=O)NO)(S(=O)(=O)c2ccc(OCCCc3nc(-c4ccc(OC(F)(F)F)cc4)no3)cc2)CC1 [Example 190]	0.669	0.0005		
O=C(NO)C1(S(=O)(=O)c2ccc(OCCCc3ccnc(-c4ccccc4)c3)cc2)CCOCC1 [Example 197]	0.334	0.0005		
O=C(CCCc1ccc(S(=O)(=O)C2(C(=O)NO)CCOCC2)cc1)c1cccc(-c2ccccc2)c1 [Example 219]	0.0595	0.0004		
O=C(CCCOc1ccc(S(=O)(=O)C2(C(=O)NO)CCOCC2)cc1)Nc1ccc(OC(F)(F)F)cc1 [Example 228]	0.247	0.0002		
Cc1cc(OC(F)(F)F)ccc1NC(=O)CCCOc1ccc(S(=O)(=O)C2(C(=O)NO)CCOCC2)cc1 [Example 229]	0.281	0.0017		
COc1ccc(/C(C#N)=C/CCCOc2ccc(S(=O)(=O)C3(C(=O)NO)CCN(C4CC4)CC3)cc2)cc1 [Example 233]	0.509	0.0001		
CN(C(=O)CCCOc1ccc(S(=O)(=O)C2(C(=O)NO)CCOCC2)cc1)c1ccc(OC(F)(F)F)cc1 [Example 249]	1.49	0.00509		
O=C(CCCOc1ccc(S(=O)(=O)C2(C(=O)NO)CCOCC2)cc1)Nc1ccc(OC(F)(F)F)cc1 [Example 250]	0.0125	0.0003		
Cc1cc(NC(=O)CCCOc2ccc(S(=O)(=O)C3(C(=O)NO)CCOCC3)cc2)ccc1OC(C)C [Example 290]	> 10	0.0011		
O=C(NO)C1(S(=O)(=O)c2ccc(OCCCc3cncc(Br)c3)cc2)CCOCC1 [Example 522]			0.135	0.0003
O=C(NO)C1(S(=O)(=O)c2ccc(OCCCc3cncc(-c4ccc(F)cc4)c3)cc2)CCOCC1 [Example 523]			1.25	0.0003
O=C(NO)C1(S(=O)(=O)c2ccc(OCCCc3cncc(-c4ccccc4)c3)cc2)CCOCC1 [Example 524]			0.739	0.0002
O=C(COc1ccc(S(=O)(=O)C2(C(=O)NO)CCOCC2)cc1)c1cccc(-c2ccccc2)c1 [Example 563]			0.132	0.0011
O=C(CCCOc1ccc(S(=O)(=O)C2(C(=O)NO)CCOCC2)cc1)Nc1cccc(I)c1 [Example 570]			0.00615	0.0002
O=C(NO)C1(S(=O)(=O)c2ccc(OCCCc3cccc(-n4ccnc4)c3)cc2)CCOCC1 [Example 574]			0.083	0.0007
O=C(NO)C1(S(=O)(=O)c2ccc(OCCCc3nc(-c4cccnc4)no3)cc2)CCOCC1 [Example 578]			0.578	0.0029
O=C(NO)C1(S(=O)(=O)c2ccc(OCCCc3nc(-c4ccccc4)no3)cc2)CCOCC1 [Example 584]			0.0126	0.0036
O=C(NO)C1(S(=O)(=O)c2ccc(OCCCc3cc(-c4ccc(F)cc4F)cs3)cc2)CCOCC1 [Example 587]			8.18	0.0001

Compound	Ki ([1]; value in parenthesis) [µM]	IC50 ([2]; value outside parenthesis) [µM]	Ki ([1]; value in parentheses) [µM]	IC50 ([2]; value outside parentheses) [µM]
CCN1CCC(C(=O)NO)(S(=O)(=O)c2ccc(OCCCSc3nc4ccccc4s3)cc2)CC1 [Example 591]			0.00422	0.0003
O=C(NO)C1(S(=O)(=O)c2ccc(OCCCc3cccc(-c4cccs4)c3)cc2)CCOCC1 [Example 595]			2.06	0.001
O=C(Cc1csc2ccccc12)NCCOc1ccc(S(=O)(=O)C2(C(=O)NO)CCOCC2)cc1 [Example 596]			0.308	0.0027
O=C(NCCOc1ccc(S(=O)(=O)C2(C(=O)NO)CCOCC2)cc1)c1cc2ccccc2[nH]1 [Example 599]			0.0113	0.0001
O=C(NO)C1(S(=O)(=O)c2ccc(OCCCc3cc(-c4ccc(OC(F)(F)F)cc4)cs3)cc2)CCOCC1 [Example 608]			1.37	0.0066
N#Cc1ccc(-c2cccc(CCCOc3ccc(S(=O)(=O)C4(C(=O)NO)CCOCC4)cc3)c2)cc1 [Example 624]			0.443	0.0003
O=C(NO)C1(S(=O)(=O)c2ccc(OCCCc3cccc(-c4ccc(C(F)(F)F)cc4)c3)cc2)CCOCC1 [Example 625]			4.6	0.0336
O=C(NO)C1(S(=O)(=O)c2ccc(OCCCc3cccc(-c4ccc([N+](=O)[O-])cc4)c3)cc2)CCOCC1 [Example 626]			1.1	0.0004
O=C(NO)C1(S(=O)(=O)c2ccc(OCCCc3cccc(-c4ccc5c(c4)OCCO5)c3)cc2)CCOCC1 [Example 627]			3.15	0.0149
O=C(NO)C1(S(=O)(=O)c2ccc(OCCCc3cccc(-c4ccc5c(c4)OCO5)c3)cc2)CCOCC1 [Example 628]			1.93	0.0033
O=C(NO)C1(S(=O)(=O)c2ccc(OCCCc3cccc(-c4ccc5ccccc5c4)c3)cc2)CCOCC1 [Example 629]			1.3	0.0786
O=C(NO)C1(S(=O)(=O)c2ccc(OCCCc3cccc(-c4ccc(F)cc4F)c3)cc2)CCOCC1 [Example 630]			2.28	0.0004
O=C(NO)C1(S(=O)(=O)c2ccc(OCCCc3cccc(-c4csc5ccccc45)c3)cc2)CCOCC1 [Example 631]			5.81	0.118
O=C(NO)C1(S(=O)(=O)c2ccc(OCCCc3cccc(-c4ccsc4)c3)cc2)CCOCC1 [Example 632]			0.716	0.0016
O=C(NO)C1(S(=O)(=O)c2ccc(OCCCc3cccc(-c4cc5ccccc5s4)c3)cc2)CCOCC1 [Example 633]			6.78	0.117
O=C(NO)C1(S(=O)(=O)c2ccc(OCCCc3cccc(-c4coc5ccccc45)c3)cc2)CCOCC1 [Example 634]			1.3	0.0163
C=Cc1ccc(-c2cccc(CCCOc3ccc(S(=O)(=O)C4(C(=O)NO)CCOCC4)cc3)c2)cc1 [Example 635]			4.83	0.02
O=C(NO)C1(S(=O)(=O)c2ccc(OCCCc3cccc(-c4ccccc4O)c3)cc2)CCOCC1 [Example 636]			0.763	0.0032
O=C(NO)C1(S(=O)(=O)c2ccc(OCCCc3cccc(-c4ccoc4)c3)cc2)CCOCC1 [Example 637]			0.881	0.0018
O=C(NO)C1(S(=O)(=O)c2ccc(OCCCc3cccc(-c4cccc5ccccc45)c3)cc2)CCOCC1 [Example 638]			8.77	0.4
Cc1ccc(-c2cccc(CCCOc3ccc(S(=O)(=O)C4(C(=O)NO)CCOCC4)cc3)c2)s1 [Example 639]			0.688	0.0043
